Measured values as given in PubChem BioAssay (NCI).
Values joined by “and” are separate entries in the source; they are usually repeats but may differ in a detail not shown here. Equal values may be shown once.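 Cultured in 96-well plates, cells were exposed to test compound for 48 hours across five concentrations. At the GI50, growth is halved. TGI: concentration producing complete growth inhibition.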

Tests used:
Experiment in all cases: growth of human tumour cells (NCI), 48 h
UACC-257 melanoma = system: UACC-257 melanoma
OVCAR-3 ovarian = system: OVCAR-3 ovarian
NCI-H460 lung = system: NCI-H460 lung
NCI-H522 lung = system: NCI-H522 lung
HOP-92 NSCLC = system: HOP-92 NSCLC
OVCAR-8 ovarian = system: OVCAR-8 ovarian
SK-MEL-28 melanoma = system: SK-MEL-28 melanoma
SNB-75 CNS = system: SNB-75 CNS

Row | Compound | GI50 (UACC-257 melanoma) [µM] | TGI (UACC-257 melanoma) [µM] | GI50 (OVCAR-3 ovarian) [µM] | TGI (OVCAR-3 ovarian) [µM] | GI50 (NCI-H460 lung) | TGI (NCI-H460 lung) [µM] | GI50 (NCI-H522 lung) | TGI (NCI-H522 lung) [µM] | GI50 (HOP-92 NSCLC) [µM] | TGI (HOP-92 NSCLC) [µM] | GI50 (OVCAR-8 ovarian) [µM] | TGI (OVCAR-8 ovarian) [µM] | GI50 (SK-MEL-28 melanoma) [µM] | TGI (SK-MEL-28 melanoma) [µM] | GI50 (SNB-75 CNS) [µM] | TGI (SNB-75 CNS) [µM]
1 | C=C(C)[C@@H]1CCC[C@]2(C(=O)O)CC[C@]3(C)[C@@H](CC[C@@H]4[C@@]5(C)C/C(=C/c6ccncc6)C(=O)C(C)(C)[C@@H]5CC[C@]43C)[C@@H]12 | 3 | 13.8 | 1.89 | 3.85 | 1.87 µM | 4.45 | 2.74 µM | 9.14 | 1.71 | 7.19 | 3.07 | > 100 | 2.1 | 4.58 |  | 
2 | CN1CCN(C(=S)SCN2C(=O)c3ccccc3S2(=O)=O)CC1 | 63.9 | > 100 | 21.9 | 63.2 | 17.8 µM | 96.1 | 7.26 µM | 34.1 |  |  | 46.3 | > 100 | 14.4 | 37.5 | 24.5 | 92.1
3 | Cc1csc(Nc2nc(-c3cccc(Cl)c3)nc(C(Cl)(Cl)Cl)n2)n1 | 3.53 | 28 | 1.06 | 3.53 | 1.22 µM | 5.42 | > 33.3 µM | > 33.3 | 0.801 | 3.21 | 7.77 | > 33.3 | 3.53 | > 33.3 |  | 
4 | O=C(NO)C(O)C(O)C(O)C(O)CO (stereo not given) | > 100 | > 100 | > 100 | > 100 | 54.6 µM and 37.9 µM | > 100 | > 100 µM and 44.7 µM | > 100 | > 100 | > 100 | > 100 | > 100 | > 100 | > 100 |  | 
5 | CCOc1cccnc1/C=N/NC(N)=S | 3.99 | 39.1 | 4.44 | > 100 | 3.48 µM | > 100 | 3.05 µM | > 100 |  |  | 3.48 | > 100 | 4.75 | > 100 | 3.84 | > 100
6 | CN1c2ccccc2C(=O)Nc2cnc(Cl)nc21 |  | > 100 |  | > 100 |  |  |  | > 100 |  | > 100 |  | > 100 |  | > 100 |  | > 100
7 | O=c1[nH]c2cc(O)ccc2n2cc3c(F)cccc3c12 | 31.9 | > 100 | 5.77 | > 100 | 0.451 µM | > 100 | 0.785 µM | > 100 | 3.41 | > 100 | 3.85 | > 100 |  |  | 1.76 | > 100
8 | COc1ccc(N(Cc2cc(OC)c(OC)c(OC)c2)C2OC(=O)c3ccccc32)cc1 (stereo not given) |  |  | 0.368 | 1.98 | 0.394 µM | > 60.2 | 0.286 µM | 3.11 | 0.349 | > 100 | 0.779 | > 100 |  | > 100 |  | 
9 | COC(=O)C1=C(O)C(C(=O)OC)[C@@]2(O)[C@@H](C(=O)OC)C(c3ccc(OC(=O)C(CC(C)C)NC(C)=O)cc3)C[C@@H]1[C@@H]2C(=O)OC (stereo not given in full) | > 100 | > 100 | > 100 | > 100 | 41.6 µM | > 100 | 60.9 µM | > 100 | 39.5 | > 100 | 43.7 | > 100 | > 100 | > 100 |  | 
10 | O=c1c2cc(F)ccc2sc2c(NCCCN3CCCC3)nc3ccccc3c12 | 1.97 | 3.98 | 2.07 | 4.72 |  |  | 1.97 µM | 3.96 | 1.13 | 3.85 | 2.11 | 4.86 | 1.97 | 3.85 | 1.43 | 3.14
11 | COc1ccc(-n2nc(C)c3c2N(C)C2(C)C[C@@H]4C3(C)[C@@H]3CC4(C2)N(C)c2c(c(C)nn2-c2ccc(OC)cc2)[C@H]3C)cc1 (stereo not given in full) |  |  | 7.14 | > 100 | 3.69 µM | > 100 | 0.891 µM | 6.94 |  |  | 4.19 | 92.7 | 15.2 | > 100 |  | 
12 | COc1cc(C(=O)N/N=C/c2cccc([N+](=O)[O-])c2)cc(OC)c1OC | 5.11 | > 100 | 2.39 | 6.64 | 3.23 µM | > 100 | 2.45 µM | 5.74 |  |  | 23.6 | > 100 | 39.3 | > 100 | 6.92 | 56.1
13 | CC1(C)CC2(C)OC2C2(C1)N=NC(=Nc1ccccc1)O2 (stereo not given) | 4.11 | 15.7 | 2.23 | 4.81 | 11.3 µM | 31.5 | 1.61 µM | 3.33 |  |  | 2.9 | > 100 | 11.9 | 27.4 | 16.4 | 30.4
14 | C[C@H](NC(=O)CCC(F)(F)F)C(=O)N[C@@H]1C(=O)N(CCO)c2ncccc2-c2ccccc21 |  |  | > 100 | > 100 | > 100 µM | > 100 | > 100 µM | > 100 |  |  | > 100 | > 100 | > 100 | > 100 | > 100 | > 100
